The record followed here is EP0753512B1, “N,N,-diethyl-8,8-dipropyl-2-azaspiro[4.5]decane-2-propanamin] dimaleate salt” (AnorMED Inc, priority 1995, dated 1997).

A short description of data set [1]: Hygroscopicity: rate of moisture absorption, Integrated Microbalance System. The class given is physicochemical. The following applies: for % Weight Gain (Moisture Absorption): 25 °C; for hygroscopicity: statement in words, upon storage. The protocol: The rate of moisture absorption of Compound B and Compound C were tested individually in an Integrated Microbalance System, MODEL MB 300 G (VTI Corporation, Hialeah, Florida) using the accompanying Software Manual. Table 2(a) [table]

Data set [2] is described as follows: Relative solubilities in water, HCl and methanol. The class given is physicochemical.
The mark [3] stands for this setting: organic solvent or mixture, Solvent: methanol.

SMILES strings stand for the structures. A value given as a limit tells only on which side of the number the result lay.

Consider `CCCC1(CCC)CCC2(CCN(CCCN(CC)CC)C2)CC1.O=C(O)/C=C\C(=O)O.O=C(O)/C=C\C(=O)O` [Compound C, N,N-diethyl-8,8-dipropyl-2-azaspiro[4.5]decane-2-propanamine dimaleate], for which the “% Weight Gain (Moisture Absorption)” value is 0% in data set [1] (0 % relative humidity); -0.21% in data set [1] (10 % relative humidity); -0.18% in data set [1] (15 % relative humidity); -0.08% in data set [1] (20 % relative humidity); -0.12% in data set [1] (25 % relative humidity); -0.08% in data set [1] (30 % relative humidity). Further, the “% Weight Gain (Moisture Absorption)” value in data set [1] (35 % relative humidity) is given as -0.08%; in data set [1] (40 % relative humidity) it was -0.08%; in data set [1] (45 % relative humidity), -0.05%; in data set [1] (50 % relative humidity) it was -0.04%; in data set [1] (55 % relative humidity), 0.04%; in data set [1] (60 % relative humidity), 0.1%. Besides, the “% Weight Gain (Moisture Absorption)” value in data set [1] (65 % relative humidity) turned out to be 0.18%; in data set [1] (70 % relative humidity), 0.41%; in data set [1] (75 % relative humidity) it was 0.56%; in data set [1] (80 % relative humidity), 0.89%; in data set [1] (85 % relative humidity) it was 1.70%; in data set [1] (90 % relative humidity), 5.37%. In addition, the “% Weight Gain (Moisture Absorption)” value in data set [1] (95 % relative humidity) is 42.88%. Also, in data set [1], the hygroscopicity result is given as “far less hygroscopic”. The solubility in data set [2] (Solvent: 0.1% HCl), in data set [2] (Solvent: Water) and in data set [2] (setting [3]) was greater than 100 mg/mL each time.

For `CCCC1(CCC)CCC2(CCN(CCCN(CC)CC)C2)CC1.Cl.Cl` [Compound B, N,N-diethyl-8,8-dipropyl-2-azaspiro[4.5]decane-2-propanamine dihydrochloride, reference compound], the “% Weight Gain (Moisture Absorption)” value in data set [1] (0 % relative humidity) is 0%; in data set [1] (10 % relative humidity), 0.20%; in data set [1] (15 % relative humidity), 1.81%; in data set [1] (20 % relative humidity) it was 2.17%; in data set [1] (25 % relative humidity) it was 2.84%; in data set [1] (30 % relative humidity), 3.74%. Besides, the “% Weight Gain (Moisture Absorption)” value in data set [1] (35 % relative humidity) is listed as 3.15%; in data set [1] (40 % relative humidity) it was 3.30%; in data set [1] (45 % relative humidity) it was 4.74%; in data set [1] (50 % relative humidity), 5.49%; in data set [1] (55 % relative humidity), 9.07%; in data set [1] (60 % relative humidity), 9.26%. Further, the “% Weight Gain (Moisture Absorption)” value was 9.50% in data set [1] (65 % relative humidity); 15.47% in data set [1] (70 % relative humidity); 31.30% in data set [1] (75 % relative humidity); 36.53% in data set [1] (80 % relative humidity); 44.16% in data set [1] (85 % relative humidity). In addition, the hygroscopicity result in data set [1] is “hygroscopic”. The solubility in data set [2] (Solvent: 0.1% HCl), in data set [2] (Solvent: Water) and in data set [2] (setting [3]) was greater than 100 mg/mL in each case.

What is called solubility is the concentration that dissolves in the medium under given conditions.
